# ChEMBL document CHEMBL5543142, “Discovery of YFJ-36: Design, Synthesis, and Antibacterial Activities of Catechol-Conjugated β-Lactams against Gram-Negative Bacteria” (J Med Chem, 2024)
# What was measured:
# Assay type in all cases: functional
# Conditions in all cases: time 18-20 hrs
# Escherichia coli [1] = experiment: Antibacterial activity against ESBL-producing multidrug-resistant Escherichia coli clinical isolate 14-1 assessed as inhibition of bacterial growth incubated for 18 to 20 hrs by two fold serial dilution assay
# Pseudomonas aeruginosa [2] = experiment: Antibacterial activity against IMP-4 producing multidrug-resistant Pseudomonas aeruginosa clinical isolate 17-1 assessed as inhibition of bacterial growth incubated for 18 to 20 hrs by two fold serial dilution assay
# Escherichia coli [3] = experiment: Antibacterial activity against ESBL-producing multidrug-resistant Escherichia coli clinical isolate 14-2 assessed as inhibition of bacterial growth incubated for 18 to 20 hrs by two fold serial dilution assay
# Acinetobacter baumannii [4] = experiment: Antibacterial activity against OXA-23 producing multidrug-resistant Acinetobacter baumannii clinical isolate 15-4 assessed as inhibition of bacterial growth incubated for 18 to 20 hrs by two fold serial dilution assay
# Klebsiella pneumoniae [5] = experiment: Antibacterial activity against KPC-2 producing multidrug-resistant Klebsiella pneumoniae clinical isolate 15-5 assessed as inhibition of bacterial growth incubated for 18 to 20 hrs by two fold serial dilution assay
# Acinetobacter baumannii [6] = experiment: Antibacterial activity against OXA-23 producing multidrug-resistant Acinetobacter baumannii clinical isolate 15-2 assessed as inhibition of bacterial growth incubated for 18 to 20 hrs by two fold serial dilution assay
# Pseudomonas aeruginosa [7] = experiment: Antibacterial activity against IMP-4 producing multidrug-resistant Pseudomonas aeruginosa clinical isolate 17-13 assessed as inhibition of bacterial growth incubated for 18 to 20 hrs by two fold serial dilution assay
# Klebsiella pneumoniae [8] = experiment: Antibacterial activity against KPC-2 producing multidrug-resistant Klebsiella pneumoniae clinical isolate 15-1 assessed as inhibition of bacterial growth incubated for 18 to 20 hrs by two fold serial dilution assay
# Pseudomonas aeruginosa [9] = experiment: Antibacterial activity against IMP-4 producing multidrug-resistant Pseudomonas aeruginosa clinical isolate 19-17 assessed as inhibition of bacterial growth incubated for 18 to 20 hrs by two fold serial dilution assay
# Escherichia coli [10] = experiment: Antibacterial activity against ESBL-producing multidrug-resistant Escherichia coli clinical isolate 14-4 assessed as inhibition of bacterial growth incubated for 18 to 20 hrs by two fold serial dilution assay
# Acinetobacter baumannii [11] = experiment: Antibacterial activity against OXA-23 producing multidrug-resistant Acinetobacter baumannii clinical isolate 15-3 assessed as inhibition of bacterial growth incubated for 18 to 20 hrs by two fold serial dilution assay
# Klebsiella pneumoniae [12] = experiment: Antibacterial activity against KPC-2 producing multidrug-resistant Klebsiella pneumoniae clinical isolate 15-2 assessed as inhibition of bacterial growth incubated for 18 to 20 hrs by two fold serial dilution assay
# Escherichia coli [13] = experiment: Antibacterial activity against Escherichia coli ATCC35218 assessed as inhibition of bacterial growth incubated for 18 to 20 hrs by two fold serial dilution assay
# Acinetobacter baumannii [14] = experiment: Antibacterial activity against OXA-23 producing multidrug-resistant Acinetobacter baumannii clinical isolate 15-1 assessed as inhibition of bacterial growth incubated for 18 to 20 hrs by two fold serial dilution assay
# Acinetobacter baumannii [15] = experiment: Antibacterial activity against OXA-23 producing multidrug-resistant Acinetobacter baumannii clinical isolate 15-5 assessed as inhibition of bacterial growth incubated for 18 to 20 hrs by two fold serial dilution assay
# Klebsiella pneumoniae [16] = experiment: Antibacterial activity against KPC-2 producing multidrug-resistant Klebsiella pneumoniae clinical isolate 15-3 assessed as inhibition of bacterial growth incubated for 18 to 20 hrs by two fold serial dilution assay
# Acinetobacter baumannii [17] = experiment: Antibacterial activity against OXA-23 producing multidrug-resistant Acinetobacter baumannii clinical isolate 17-2 assessed as inhibition of bacterial growth incubated for 18 to 20 hrs by two fold serial dilution assay
# Pseudomonas aeruginosa [18] = experiment: Antibacterial activity against IMP-4 producing multidrug-resistant Pseudomonas aeruginosa clinical isolate 19-5 assessed as inhibition of bacterial growth incubated for 18 to 20 hrs by two fold serial dilution assay
# Pseudomonas aeruginosa [19] = experiment: Antibacterial activity against IMP-4 producing multidrug-resistant Pseudomonas aeruginosa clinical isolate 19-1 assessed as inhibition of bacterial growth incubated for 18 to 20 hrs by two fold serial dilution assay
SMILES,MIC (Escherichia coli [1]) [µg/mL],MIC (Pseudomonas aeruginosa [2]) [µg/mL],MIC (Escherichia coli [3]) [µg/mL],MIC (Acinetobacter baumannii [4]) [µg/mL],MIC (Klebsiella pneumoniae [5]) [µg/mL],MIC (Acinetobacter baumannii [6]) [µg/mL],MIC (Pseudomonas aeruginosa [7]) [µg/mL],MIC (Klebsiella pneumoniae [8]) [µg/mL],MIC (Pseudomonas aeruginosa [9]) [µg/mL],MIC (Escherichia coli [10]) [µg/mL],MIC (Acinetobacter baumannii [11]) [µg/mL],MIC (Klebsiella pneumoniae [12]) [µg/mL],MIC (Escherichia coli [13]) [µg/mL],MIC (Acinetobacter baumannii [14]) [µg/mL],MIC (Acinetobacter baumannii [15]) [µg/mL],MIC (Klebsiella pneumoniae [16]) [µg/mL],MIC (Acinetobacter baumannii [17]) [µg/mL],MIC (Pseudomonas aeruginosa [18]) [µg/mL],MIC (Pseudomonas aeruginosa [19]) [µg/mL]
Nc1nc(/C(=N/OC(C(=O)O)C2CCCC2)C(=O)N[C@@H]2C(=O)N3C(C(=O)O)=C(CSCCNC(=O)c4ccc(O)c(O)c4Cl)CS[C@H]23)cs1.O=C(O)C(F)(F)F (stereo partly drawn),0.25,1,2,16,2,16,8,2,1,0.25,16,2,0.25,32,32,4,,,
Nc1nc(/C(=N/OC(C(=O)O)C2CCSCC2)C(=O)N[C@@H]2C(=O)N3C(C(=O)O)=C(CSCCNC(=O)c4ccc(O)c(O)c4Cl)CS[C@H]23)cs1.O=C(O)C(F)(F)F (stereo partly drawn),0.125,,0.5,8,8,8,1,2,0.5,0.25,4,4,0.25,4,4,4,,,
Nc1nc(/C(=N/OC(C(=O)O)C2CCS(=O)(=O)CC2)C(=O)N[C@@H]2C(=O)N3C(C(=O)O)=C(CSCCNC(=O)c4ccc(O)c(O)c4Cl)CS[C@H]23)cs1.O=C(O)C(F)(F)F (stereo partly drawn),1,,1,4,0.5,2,1,2,2,0.5,2,2,,2,4,2,,,
Cc1sc(N)nc1/C(=N/OC(C(=O)O)C1CCC(F)(F)CC1)C(=O)N[C@@H]1C(=O)N2C(C(=O)O)=C(CSCCNC(=O)c3ccc(O)c(O)c3Cl)CS[C@H]12.O=C(O)C(F)(F)F (stereo partly drawn),0.5,,1,4,2,2,0.25,2,0.25,0.5,4,4,0.25,4,2,8,0.125,1,8
